The values below come from ChEMBL document CHEMBL5316338, “Discovery of Novel PTP1B Inhibitors with Once-Weekly Therapeutic Potential for Type 2 Diabetes: Design, Synthesis, and In Vitro and In Vivo Investigations of BimBH3 Peptide Analogues” (J Med Chem, 2023).

The target in data set [1] is T1, Tyrosine-protein phosphatase non-receptor type 1 (Homo sapiens) (UniProt P18031).
T1 sequence (whole entry): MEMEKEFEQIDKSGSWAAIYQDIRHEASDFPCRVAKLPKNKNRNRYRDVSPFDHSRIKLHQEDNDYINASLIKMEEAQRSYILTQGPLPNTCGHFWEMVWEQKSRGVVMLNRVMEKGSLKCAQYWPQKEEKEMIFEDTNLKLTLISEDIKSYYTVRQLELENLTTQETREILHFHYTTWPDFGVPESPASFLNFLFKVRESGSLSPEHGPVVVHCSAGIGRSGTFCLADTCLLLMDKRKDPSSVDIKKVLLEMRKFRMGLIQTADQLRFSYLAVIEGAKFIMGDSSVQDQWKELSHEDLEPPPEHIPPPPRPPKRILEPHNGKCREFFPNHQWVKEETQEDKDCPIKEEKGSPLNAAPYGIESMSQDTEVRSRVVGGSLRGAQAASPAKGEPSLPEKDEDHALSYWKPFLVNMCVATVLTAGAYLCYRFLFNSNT
The experiment in a line: Inhibition of N-terminal His tagged recombinant human PTP1B expressed in Escherichia coli using pNPP as substrate assessed as substrate hydrolysis at 40 umol/L relative to control. Particulars: dose 40.0 µmol/L.

For data set [2], the target named is T2, Tyrosine-protein phosphatase non-receptor type 2 (Homo sapiens) (UniProt P17706).
T2 sequence (whole entry): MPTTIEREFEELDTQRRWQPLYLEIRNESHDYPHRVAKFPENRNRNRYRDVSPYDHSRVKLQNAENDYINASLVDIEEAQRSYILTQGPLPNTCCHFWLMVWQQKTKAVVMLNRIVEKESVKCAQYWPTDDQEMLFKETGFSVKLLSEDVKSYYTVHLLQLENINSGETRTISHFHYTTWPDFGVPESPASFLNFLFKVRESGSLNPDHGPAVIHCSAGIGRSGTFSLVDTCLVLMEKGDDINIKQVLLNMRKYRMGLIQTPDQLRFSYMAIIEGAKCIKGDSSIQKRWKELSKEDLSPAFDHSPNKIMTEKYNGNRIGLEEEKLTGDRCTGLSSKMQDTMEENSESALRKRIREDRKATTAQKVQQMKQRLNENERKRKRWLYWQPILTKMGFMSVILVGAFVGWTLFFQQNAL
The experiment in a line: Inhibition of recombinant human TC-PTP (1 to 314 residues) expressed in baculovirus infected insect cells using pNPP as substrate assessed as substrate hydrolysis at 50 umol/L relative to control. As to conditions: Insect cell, dose 50.0 µmol/L.

The species named for data set [3] is Homo sapiens. The data set is described as follows: Selectivity index, ratio of IC50 for inhibition of recombinant human TC-PTP (1 to 314 residues) expressed in baculovirus infected insect cells to IC50 for inhibition of N-terminal His-tagged recombinant human PTP1B expressed in Escherichia coli.
Data set [4] deals with Pepsin. The data set is described as follows: Stability of compound assessed as Pepsin (unknown origin) mediated compound degradation by measuring half-life by HPLC analysis. It counts as ADME. Particulars: human.
Data set [5] concerns the target chymotrypsin (Homo sapiens, UniProt P17538+P40313+Q6GPI1+Q99895). The data set is described as follows: Stability of compound assessed as chymotrypsin (unknown origin) mediated compound degradation by measuring half-life by RP-HPLC analysis. It counts as ADME, protein assay.
Data set [6] deals with Mus musculus. The experiment in a line: Antidiabetic activity against C57BL/Ks db/db mouse assessed as reduction in fasting blood glucose level at 1 uM/kg, sc administered once every 2 days for 2 weeks by glucometer analysis. It counts as functional, organism-based.
Data set [7] concerns Mus musculus. The data set is described as follows: Antidiabetic activity against C57BL/Ks db/db mouse assessed as reduction in fasting blood glucose level at 1 uM/kg, sc administered once a week for 2 weeks by glucometer analysis. It counts as functional, organism-based.
Data set [8] is described as follows: Stability of compound assessed as Proteinase K (unknown origin) mediated compound degradation by measuring fold change of half-life by HPLC analysis relative to BimBH312-mer peptide. It counts as ADME.
Data set [9] is described as follows: Stability of compound assessed as Pepsin (unknown origin) mediated compound degradation by measuring fold change of half-life by HPLC analysis relative to BimBH312-mer peptide. It counts as ADME. Particulars: human.
For data set [10], the target named is T3, Carboxypeptidase A1 (Homo sapiens, UniProt P15085).
T3 sequence (P15085 whole entry): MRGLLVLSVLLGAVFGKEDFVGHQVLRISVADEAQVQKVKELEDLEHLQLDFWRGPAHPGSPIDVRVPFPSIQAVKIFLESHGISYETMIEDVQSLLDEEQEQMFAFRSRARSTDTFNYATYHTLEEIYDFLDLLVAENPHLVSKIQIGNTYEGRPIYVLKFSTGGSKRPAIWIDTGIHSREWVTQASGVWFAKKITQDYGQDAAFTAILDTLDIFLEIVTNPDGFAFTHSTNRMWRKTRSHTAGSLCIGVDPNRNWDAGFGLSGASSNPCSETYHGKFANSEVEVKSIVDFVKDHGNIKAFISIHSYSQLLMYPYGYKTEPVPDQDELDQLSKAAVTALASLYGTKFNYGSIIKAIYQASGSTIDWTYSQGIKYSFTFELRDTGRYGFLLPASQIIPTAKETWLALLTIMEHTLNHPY
The data set is described as follows: Stability of compound assessed as carboxypeptidase A (unknown origin) mediated compound degradation by measuring fold change of half-life by RP-HPLC analysis relative to BimBH312-mer peptide. It counts as ADME.

Data set [11] concerns Mus musculus. The experiment in a line: Antidiabetic activity against C57BL/Ks db/db mouse assessed as redcution in fasting blood glucose level at 1 umol/kg administered subcutaneously and measured immediately by glucometer analysis (reference value: 19.0 +/- 2.7 […]). It counts as functional. Particulars: dose 1 µmol/kg; route sc.
Data set [12] relates to Mus musculus. The data set is described as follows: Antidiabetic activity against C57BL/Ks db/db mouse assessed as redcution in fasting blood glucose level at 1 umol/kg, sc administered once a week and measured on day 8 by glucometer analysis (reference value: 27.7 +/- 3.7 […]). It counts as functional. As to conditions: dose 1 µmol/kg, time 8 day.
Data set [13] deals with Mus musculus. The experiment in a line: Antidiabetic activity against C57BL/Ks db/db mouse assessed as redcution in fasting blood glucose level at 1 umol/kg, sc administered once a week and measured on day 15 by glucometer analysis (reference value: 27.3 +/- 2.4 […]). It counts as functional. As to conditions: dose 1 µmol/kg, time 15 day.
The test system of data set [14] is Mus musculus. The data set is described as follows: Antidiabetic activity against C57BL/Ks db/db mouse assessed as redcution in fasting blood glucose level at 1 umol/kg, sc administered once a week and measured on day 22 by glucometer analysis (reference value: 27.4 +/- 1.8 […]). It counts as functional. Particulars: dose 1 µmol/kg, time 22 day.
Data set [15] deals with Mus musculus. The data set is described as follows: Antidiabetic activity against C57BL/Ks db/db mouse assessed as redcution in fasting blood glucose level at 1 umol/kg, sc administered once a week and measured on day 28 by glucometer analysis (reference value: 32.4 +/- 1.1 […]). It counts as functional. As to conditions: dose 1 µmol/kg, time 28 day.
The test system of data set [16] is Mus musculus. The data set is described as follows: Antidiabetic activity against over-night fasted C57BL/ks db/db mouse assessed as suppression of increased blood glucose concentration at 1 uM/kg, sc pretreated with compound for 4 weeks followed by insulin stimulation and measured for 90 mins by insulin tolerance test. It counts as functional, organism-based. As to conditions: time 40410.0 min.

Data set [17] deals with Mus musculus. The data set is described as follows: Antidiabetic activity against sc dosed C57BL/Ks db/db mouse assessed as reduction in serum insulin level at 1 umol/kg by ELISA analysis. It counts as functional, organism-based. As to conditions: dose 1.0 µmol/kg. On the technique in general: ELISA stands for enzyme-linked immunosorbent assay.

What is called inhibition is the change of the read-out against control, counted positive when it falls. The half-life is the time in which the quantity being followed falls by half.

Activity calls are given as the source filed them. The calls are words filed in the database; no cut-off is given here. Square brackets hold non-standard residues; d marks the D form. Peptide text beside a SMILES is read from it. * marks the point of attachment. ξ: configuration not given here. C18 diacid = O=C(O)CCCCCCCCCCCCCCCCC(=O)*; Myristoyl = CCCCCCCCCCCCCC(=O)*; ξR = N=C(N)NCCCC(N)C(=O)O

In the case of `CCCCCCCCCCCCCC(=O)N[C@H](C(=O)N[C@@H](C)C(=O)N[C@@H](CCC(N)=O)C(=O)N[C@@H](CCC(=O)O)C(=O)N[C@@H](CC(C)C)C(=O)N[C@@H](CCCNC(=N)N)C(=O)NC(CCCNC(=N)N)C(=O)N[C@H](C(=O)NCC(=O)N[C@@H](CC(=O)O)C(=O)N[C@@H](CCC(=O)O)C(=O)N[C@@H](Cc1ccccc1)C(=O)O)[C@@H](C)CC)[C@@H](C)CC` (some centres undefined) (Myristoyl-IAQELR[ξR]IGDEF-OH), the inhibition was over 50% in data set [1] and under 50% in data set [2]. Also, in [3], the Ratio IC50 is over 190. Moreover, the half-life in data set [4] was 0.65 h; in data set [5], 2.96 h. The outcome in data set [6], in data set [7], in data set [16] and in [17] was Active. For the same molecule, the “fold change (FC)” value in data set [8] was 5.8; in data set [9], 29.5; in data set [10], 31.9. The “Fasting blood glucose level” value in data set [11] is given as 20.9 mmol/L; in data set [12], 10.3 mmol/L; in data set [14], 11.2 mmol/L; in [15], 15.6 mmol/L. Further, in data set [13], the Fasting blood glucose came to 8.3 mmol/L.
As for `CC[C@H](C)[C@H](NC(=O)CCCCCCCCCCCCCCCCC(=O)O)C(=O)N[C@@H](C)C(=O)N[C@@H](CCC(N)=O)C(=O)N[C@@H](CCC(=O)O)C(=O)N[C@@H](CC(C)C)C(=O)N[C@@H](CCCNC(=N)N)C(=O)NC(CCCNC(=N)N)C(=O)N[C@H](C(=O)NCC(=O)N[C@@H](CC(=O)O)C(=O)N[C@@H](CCC(=O)O)C(=O)N[C@@H](Cc1ccccc1)C(=O)O)[C@@H](C)CC` (some centres undefined) ({C18 diacid}-IAQELR[ξR]IGDEF-OH), the inhibition in data set [1] is over 50%; in data set [2], under 50%. In data set [3], the Ratio IC50 is over 130. Also, the half-life in data set [4] is 6.77 h; in data set [5], 0.2 h. Moreover, the result in data set [6], in data set [7], in data set [16] and in data set [17] was Active. Moreover, the “fold change (FC)” value in data set [8] stood at 2.6; in [9], 307.7; in [10] it was 140.9. Moreover, the “Fasting blood glucose level” value is 19.8 mmol/L in [11], 11.1 mmol/L in data set [12], 9.9 mmol/L in [14] and 18.4 mmol/L in [15]. Besides, the Fasting blood glucose in data set [13] was 8.7 mmol/L.
